# Patent US9328099B2, “Cyanomethylpyrazole carboxamides as janus kinase inhibitors” (Merck Sharp & Dohme Corp., priority 2011, dated 2016)
# Tests used:
# [1] = target: JAK2 (Homo sapiens (Human), UniProt O60674); assay: Jak Biochemical HTRF Assay, JAK2; conditions: HTRF biochemical assay, GST-tagged catalytic domain; top concentration tested […]
# Text: (§1) Jak Biochemical HTRF Assay Protocol
# (§2) Subsequent reagent additions employed an Agilent Bravo.
# [2] = target: JAK1 (Homo sapiens (Human), UniProt P23458); assay: Jak Biochemical HTRF Assay, JAK1; conditions: HTRF biochemical assay, GST-tagged catalytic domain; top concentration tested […]; read-out: JAK1 IC50
# Sequence of JAK1 (P23458 875-1153): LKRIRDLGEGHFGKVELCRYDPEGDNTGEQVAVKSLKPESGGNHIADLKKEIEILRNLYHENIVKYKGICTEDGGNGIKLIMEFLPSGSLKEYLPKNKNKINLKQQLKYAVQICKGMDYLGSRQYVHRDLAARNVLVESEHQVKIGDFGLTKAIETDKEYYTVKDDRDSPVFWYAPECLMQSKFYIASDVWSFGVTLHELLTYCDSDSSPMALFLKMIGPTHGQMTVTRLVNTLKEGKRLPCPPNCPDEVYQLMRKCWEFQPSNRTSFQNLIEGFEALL
# Text: as §1, §2
# Sequence of JAK2 (O60674 849-1124): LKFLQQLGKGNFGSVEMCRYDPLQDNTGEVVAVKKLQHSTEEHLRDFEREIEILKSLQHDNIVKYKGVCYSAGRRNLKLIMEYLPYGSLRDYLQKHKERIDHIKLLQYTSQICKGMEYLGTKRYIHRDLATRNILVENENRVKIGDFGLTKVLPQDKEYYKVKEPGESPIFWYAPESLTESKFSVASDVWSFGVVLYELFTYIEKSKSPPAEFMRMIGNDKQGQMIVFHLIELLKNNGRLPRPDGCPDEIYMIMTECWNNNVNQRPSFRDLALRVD
Structure (SMILES),IC50 [1],IC50 [2]
"COc1ccccc1N1CCC(CC#N)(n2cc(C(N)=O)c(Nc3ccc(F)cc3)n2)CC1 [Example 3-41, 1-[4-(cyanomethyl)-1-(2-methoxyphenyl)piperidin-4-yl]-3-[(4-fluorophenyl)amino]-1H-pyrazole-4-carboxamide]",> 1500 nM,213 nM
"CC(C)Oc1ccc(CN2CCC(CC#N)(n3cc(C(N)=O)c(Nc4ccccc4)n3)CC2)cc1 [Example 21-27, 1-{4-(cyanomethyl)-1-[4-(1-methylethoxy)benzyl]piperidin-4-yl}-3-(phenylamino)-1H-pyrazole-4-carboxamide]",809 nM,36 nM
"N#CCC1(n2cc(C(N)=O)c(Nc3cncc(Cl)c3)n2)CCN(C(=O)OCC(F)(F)F)CC1 [Example 10-9, 2,2,2-trifluoroethyl 4-{4-carbamoyl-3-[(5-chloropyridin-3-yl)amino]-1H-pyrazol-1-yl}-4-(cyanomethyl)piperidine-1-carboxylate]",15 nM,0.4 nM
"COC(=O)c1cccc(N2CCC(CC#N)(n3cc(C(N)=O)c(Nc4ccc(F)cc4)n3)CC2)n1 [Example 3-35, methyl 6-[4-{4-carbamoyl-3-[(4-fluorophenyl)amino]-1H-pyrazol-1-yl}-4-(cyanomethyl)piperidin-1-yl]pyridine-2-carboxylate]",280 nM,19 nM
"Cc1cc(N2CCC(CC#N)(n3cc(C(N)=O)c(Nc4ccc(F)cc4)n3)CC2)cnc1C [Example 3-14, 1-[4-(cyanomethyl)-1-(5,6-dimethylpyridin-3-yl)piperidin-4-yl]-3-[(4-fluorophenyl)amino]-1H-pyrazole-4-carboxamide]",49 nM,2 nM
"N#CCC1(n2cc(C(N)=O)c(Nc3ccnc(F)c3)n2)CCN(Cc2cocn2)CC1 [Example 22-26, 1-[4-(cyanomethyl)-1-(1,3-oxazol-4-ylmethyl)piperidin-4-yl]-3-[(2-fluoropyridin-4-yl)amino]-1H-pyrazole-4-carboxamide]",117 nM,6 nM
"CSCCCN1CCC(CC#N)(n2cc(C(N)=O)c(Nc3ccccc3)n2)CC1 [Example 21-15, 1-{4-(cyanomethyl)-1-[3-(methylsulfanyl)propyl]piperidin-4-yl}-3-(phenylamino)-1H-pyrazole-4-carboxamide]",242 nM,12 nM
"Cc1cnc(F)c(CN2CCC(CC#N)(n3cc(C(N)=O)c(Nc4ccnc(F)c4)n3)CC2)c1 [Example 22-22, 1-{4-(cyanomethyl)-1-[(2-fluoro-5-methylpyridin-3-yl)methyl]piperidin-4-yl}-3-[(2-fluoropyridin-4-yl)amino]-1H-pyrazole-4-carboxamide]",13 nM,0.4 nM
"Cc1cc(Nc2nn(C3(CC#N)CCN(C(=O)OC(C)(C)C)CC3)cc2C(N)=O)ccn1 [Example 9-17, tent-butyl 4-{4-carbamoyl-3-[(2-methylpyridin-4-yl)amino]-1H-pyrazol-1-yl}-4-(cyanomethyl)piperidine-1-carboxylate]",133 nM,15 nM
"Cc1ncncc1N1CCC(CC#N)(n2cc(C(N)=O)c(Nc3ccc(F)cc3)n2)CC1 [Example 3-47, 1-[4-(cyanomethyl)-1-(4-methylpyrimidin-5-yl)piperidin-4-yl]-3-[(4-fluorophenyl)amino]-1H-pyrazole-4-carboxamide]",181 nM,13 nM
"CC(C)(C)OC(=O)N1CCC(CC#N)(n2cc(C(N)=O)c(Nc3ccnc(C#N)c3)n2)CC1 [Example 9-33, tert-butyl 4-{4-carbamoyl-3-[(2-cyanopyridin-4-yl)amino]-1H-pyrazol-1-yl}-4-(cyanomethyl)piperidine-1-carboxylate]",6 nM,0.2 nM
"Cc1ccc(-c2cccc(Nc3nn(C4(CC#N)CCN(C(=O)OC(C)(C)C)CC4)cc3C(N)=O)c2)cc1 [Example 15-6, tert-butyl 4-{4-carbamoyl-3-[(4′-methylbiphenyl-3-yl)amino]-1H-pyrazol-1-yl}-4-(cyanomethyl)piperidine-1-carboxylate]",1480 nM,85 nM
"N#CCC1(n2cc(C(N)=O)c(Nc3ccnc(F)c3)n2)CCN(Cc2ccc(C#N)cc2)CC1 [Example 22-69, 1-[1-(4-cyanobenzyl)-4-(cyanomethyl)piperidin-4-yl]-3-[(2-fluoropyridin-4-yl)amino]-1H-pyrazole-4-carboxamide]",9 nM,0.2 nM
"N#CCC1(n2cc(C(N)=O)c(Nc3ccc(F)cc3)n2)CCN(c2cc(F)cc(F)c2)CC1 [Example 3-40, 1-[4-(cyanomethyl)-1-(3,5-difluorophenyl)piperidin-4-yl]-3-[(4-fluorophenyl)amino]-1H-pyrazole-4-carboxamide]",67 nM,3 nM
"N#CCC1(n2cc(C(N)=O)c(Nc3ccc(F)cc3)n2)CCN(Cc2ccc3cc[nH]c3c2)CC1 [Example 22-56, 1-[4-(cyanomethyl)-1-(1H-indol-6-ylmethyl)piperidin-4-yl]-3-[(4-fluorophenyl)amino]-1H-pyrazole-4-carboxamide]",46 nM,2 nM

# Results, then the molecule that gave them:
IC50 [1],IC50 [2],Structure (SMILES)
115 nM,13 nM,"N#CCC1(n2cc(C(N)=O)c(Nc3ccccc3)n2)CCN(C(=O)c2ccccc2Cl)CC1 [Example 34-20, 1-{1-[(2-chlorophenyl)carbonyl]-4-(cyanomethyl)piperidin-4-yl}-3-(phenylamino)-1H-pyrazole-4-carboxamide]"
48 nM,3 nM,"CC(CF)(CF)C(=O)N1CCC(CC#N)(n2cc(C(N)=O)c(Nc3ccnc(F)c3)n2)CC1 [Example 34-41, 1-{4-(cyanomethyl)-1-[3-fluoro-2-(fluoromethyl)-2-methylpropanoyl]piperidin-4-yl}-3-[(2-fluoropyridin-4-yl)amino]-1H-pyrazole-4-carboxamide]"
13 nM,0.3 nM,"CC(C(=O)N1CCC(CC#N)(n2cc(C(N)=O)c(Nc3ccnc(F)c3)n2)CC1)C(F)(F)F (stereo not drawn) [Example 34-48, 1-[4-(cyanomethyl)-1-(3,3,3-trifluoro-2-methylpropanoyl)piperidin-4-yl]-3-[(2-fIuoropyridin-4-yl)amino]-1H-pyrazole-4-carboxamide]"
760 nM,30 nM,"N#CCC1(n2cc(C(N)=O)c(Nc3ccc(F)cc3)n2)CCC(Nc2cccnc2)CC1 (stereo not drawn) [Example 40-39, Cis or trans 1-[1-(cyanomethyl)-4-(pyridin-3-ylamino)cyclohexyl]-3-[(4-fluorophenyl)amino]-1H-pyrazole-4-carboxamide]"
120 nM,4 nM,"N#CCC1(n2cc(C(N)=O)c(Nc3ccc(F)cc3)n2)CCN(C(=O)OCC2CCC2)CC1 [Example 30-5, cyclobutylmethyl 4-(4-carbamoyl-3-(4-fluorophenylamino)-1H-pyrazol-1-yl)-4-(cyanomethyl)piperidine-1-carboxylate]"
26 nM,2 nM,"CCC(=O)N1CCC(CC#N)(n2cc(C(N)=O)c(Nc3ccccc3)n2)CC1 [Example 33-1, 1-[4-(Cyanomethyl)-1-propanoylpiperidin-4-yl]-3-(phenylamino)-1H-pyrazole-4-carboxamide]"
773 nM,37 nM,"N#CCC1(n2cc(C(N)=O)c(Nc3ccc(S(=O)(=O)C(F)F)cc3)n2)CCC(N2CCC(O)CC2)CC1 (stereo not drawn) [Example 40-67, Cis or trans 1-[1-(cyanomethyl)-4-(4-hydroxypiperidin-1-yl)cyclohexyl]-3-({4-[(difluoromethyl)sulfonyl]phenyl}amino)-1H-pyrazole-4-carboxamide]"
463 nM,138 nM,"N#CCC1(n2cc(C(N)=O)c(Nc3ccccc3)n2)CN(S(=O)(=O)c2ccccc2)C1 [Example 37-19, 1-[3-(cyanomethyl)-1-(phenylsulfonyl)azetidin-3-yl]-3-(phenylamino)-1H-pyrazole-4-carboxamide]"
28 nM,0.8 nM,"CC(OC(=O)N1CCC(CC#N)(n2cc(C(N)=O)c(Nc3ccc(F)cc3)n2)CC1)C(F)(F)F (stereo not drawn) [Example 30-3, 1,1,1-trifluoropropan-2-yl 4-(4-carbamoyl-3-(4-fluorophenylamino)-1H-pyrazol-1-yl)-4-(cyanomethyl)piperidine-1-carboxylate]"
214 nM,4 nM,"CCCCNC(=O)N1CC(CC#N)(n2cc(C(N)=O)c(Nc3ccccc3)n2)C1 [Example 38-5, 1-[1-(butylcarbamoyl)-3-(cyanomethyl)azetidin-3-yl]-3-(phenylamino)-1H-pyrazole-4-carboxamide]"
12 nM,1 nM,"CCS(=O)(=O)N1CCC(CC#N)(n2cc(C(N)=O)c(Nc3ccccc3)n2)CC1 [Example 37-3, 1-[4-(cyanomethyl)-1-(ethylsulfonyl)piperidin-4-yl]-3-(phenylamino)-1H-pyrazole-4-carboxamide]"
> 1500 nM,65 nM,"N#CCC1(n2cc(C(N)=O)c(Nc3ccnc(F)c3)n2)CCC(Nc2ccc(F)c(F)c2)CC1 (stereo not drawn) [Example 40-36, Cis or trans 1-{1-(cyanomethyl)-4-[(3,4-difluorophenyl)amino]cyclohexyl}-3-[(2-fluoropyridin-4-yl)amino]-1H-pyrazole-4-carboxamide]"
47 nM,1 nM,"C[C@@H](O)CC(=O)N1CCC(CC#N)(n2cc(C(N)=O)c(Nc3ccnc(F)c3)n2)CC1 [Example 34-62, 1-{4-(cyanomethyl)-1-[(3R)-3-hydroxybutanoyl]piperidin-4-yl}-3-[(2-fluoropyridin-4-yl)amino]-1H-pyrazole-4-carboxamide]"
667 nM,9 nM,"N#CCC1(n2cc(C(N)=O)c(Nc3ccc(F)cc3)n2)CCC(NCC2CC2)CC1 (stereo not drawn) [Example 40-69, Cis or trans 1-{1-(cyanomethyl)-4-[(cyclopropylmethyl)amino]cyclohexyl}-3-[(4-fluorophenyl)amino]-1H-pyrazole-4-carboxamide]"
73 nM,2 nM,"N#CCC1(n2cc(C(N)=O)c(Nc3ccc(F)cc3)n2)CCC(Nc2ccccn2)CC1 (stereo not drawn) [Example 40-12, Cis or trans 1-[1-(cyanomethyl)-4-(pyridin-2-ylamino)cyclohexyl]-3-[(4-fluorophenyl)amino]-1H-pyrazole-4-carboxamide]"
